Results as given in PubChem BioAssay (NCI).
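Exposure lasted 48 hours, with cells grown in 96-well plates and compounds tested at five concentrations. GI50: concentration for 50% inhibition of growth. TGI: total growth inhibition.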

Experiments:
Experiment in all cases: NCI-60 cell line screen, 48 h
PC-3 prostate = test system: PC-3 prostate
IGROV1 ovarian = test system: IGROV1 ovarian
U251 CNS = test system: U251 CNS
OVCAR-4 ovarian = test system: OVCAR-4 ovarian
MCF7 breast = test system: MCF7 breast
SF-268 CNS = test system: SF-268 CNS
HL-60(TB) leukemia = test system: HL-60(TB) leukemia
NCI/ADR-RES ovarian = test system: NCI/ADR-RES ovarian
ACHN renal = test system: ACHN renal
SNB-19 CNS = test system: SNB-19 CNS
COLO 205 colon = test system: COLO 205 colon
NCI-H23 lung = test system: NCI-H23 lung
LOX IMVI melanoma = test system: LOX IMVI melanoma
M14 melanoma = test system: M14 melanoma
UACC-62 melanoma = test system: UACC-62 melanoma
HCT-116 colon = test system: HCT-116 colon
T-47D breast = test system: T-47D breast
OVCAR-5 ovarian = test system: OVCAR-5 ovarian
UACC-257 melanoma = test system: UACC-257 melanoma
SR leukemia = test system: SR leukemia
SW-620 colon = test system: SW-620 colon
786-0 renal = test system: 786-0 renal
SF-295 CNS = test system: SF-295 CNS
HCT-15 colon = test system: HCT-15 colon
CAKI-1 renal = test system: CAKI-1 renal
OVCAR-3 ovarian = test system: OVCAR-3 ovarian
DU-145 prostate = test system: DU-145 prostate
SK-MEL-28 melanoma = test system: SK-MEL-28 melanoma
SK-OV-3 ovarian = test system: SK-OV-3 ovarian
SN12C renal = test system: SN12C renal
MALME-3M melanoma = test system: MALME-3M melanoma
HS 578T breast = test system: HS 578T breast
SK-MEL-2 melanoma = test system: SK-MEL-2 melanoma
CCRF-CEM leukemia = test system: CCRF-CEM leukemia
HT29 colon = test system: HT29 colon
UO-31 renal = test system: UO-31 renal
RXF 393 renal = test system: RXF 393 renal
OVCAR-8 ovarian = test system: OVCAR-8 ovarian
HOP-62 NSCLC = test system: HOP-62 NSCLC
NCI-H522 lung = test system: NCI-H522 lung
A498 renal = test system: A498 renal
A549 NSCLC = test system: A549 NSCLC
SK-MEL-5 melanoma = test system: SK-MEL-5 melanoma
EKVX NSCLC = test system: EKVX NSCLC
SNB-75 CNS = test system: SNB-75 CNS
MDA-MB-435 = test system: MDA-MB-435
MOLT-4 leukemia = test system: MOLT-4 leukemia
MDA-MB-231 breast = test system: MDA-MB-231 breast
TK-10 renal = test system: TK-10 renal
RPMI-8226 leukemia = test system: RPMI-8226 leukemia
HCC-2998 colon = test system: HCC-2998 colon
NCI-H460 lung = test system: NCI-H460 lung
KM12 colon = test system: KM12 colon
SF-539 CNS = test system: SF-539 CNS
NCI-H226 lung = test system: NCI-H226 lung
K-562 leukemia = test system: K-562 leukemia
BT-549 breast = test system: BT-549 breast
HOP-92 NSCLC = test system: HOP-92 NSCLC

## COc1ccc2c(c1)/C(=N/OC(C)=O)c1c-2c(Nc2cccc(/C(C)=N/OC(C)=O)c2)nc2ccccc12
PC-3 prostate
  GI50: 21.1 µM
  TGI: 41.5 µM
IGROV1 ovarian
  GI50: 47.5 µM
  TGI: > 100 µM
U251 CNS
  GI50: 32.4 µM
  TGI: > 100 µM
OVCAR-4 ovarian
  GI50: 86.6 µM
  TGI: > 100 µM
MCF7 breast
  GI50: 85.1 µM
  TGI: > 100 µM
SF-268 CNS
  GI50: 39 µM
  TGI: > 100 µM
HL-60(TB) leukemia
  GI50: > 100 µM
  TGI: > 100 µM
NCI/ADR-RES ovarian
  GI50: 55.3 µM
  TGI: > 100 µM
ACHN renal
  GI50: 21.4 µM
  TGI: 61 µM
SNB-19 CNS
  GI50: 55.4 µM
  TGI: > 100 µM
COLO 205 colon
  GI50: > 100 µM
  TGI: > 100 µM
NCI-H23 lung
  GI50: 35 µM
  TGI: > 100 µM
LOX IMVI melanoma
  GI50: 67.7 µM
  TGI: > 100 µM
M14 melanoma
  GI50: > 100 µM
  TGI: > 100 µM
UACC-62 melanoma
  GI50: > 100 µM
  TGI: > 100 µM
HCT-116 colon
  GI50: 41.5 µM
  TGI: > 100 µM
T-47D breast
  GI50: 37.3 µM
  TGI: > 100 µM
OVCAR-5 ovarian
  GI50: > 100 µM
  TGI: > 100 µM
UACC-257 melanoma
  GI50: 36.2 µM
  TGI: > 100 µM
SR leukemia
  GI50: 94.4 µM
  TGI: > 100 µM
SW-620 colon
  GI50: 47.5 µM
  TGI: > 100 µM
786-0 renal
  GI50: 37 µM
  TGI: > 100 µM
SF-295 CNS
  GI50: 29.9 µM
  TGI: > 100 µM
HCT-15 colon
  GI50: > 100 µM
  TGI: > 100 µM
CAKI-1 renal
  GI50: 27.3 µM
  TGI: 55.9 µM
OVCAR-3 ovarian
  GI50: 56.5 µM
  TGI: > 100 µM
DU-145 prostate
  GI50: 29.5 µM
  TGI: 85.6 µM
SK-MEL-28 melanoma
  GI50: > 100 µM
  TGI: > 100 µM
SK-OV-3 ovarian
  GI50: > 100 µM
  TGI: > 100 µM
SN12C renal
  GI50: 48.8 µM
  TGI: > 100 µM
MALME-3M melanoma
  GI50: 96.4 µM
  TGI: > 100 µM
HS 578T breast
  GI50: 40.3 µM
  TGI: > 100 µM
SK-MEL-2 melanoma
  GI50: 59.1 µM
  TGI: > 100 µM
CCRF-CEM leukemia
  GI50: 84.6 µM
  TGI: > 100 µM
HT29 colon
  GI50: > 100 µM
  TGI: > 100 µM
UO-31 renal
  GI50: > 100 µM
  TGI: > 100 µM
RXF 393 renal
  GI50: 13.4 µM
  TGI: 40.7 µM
OVCAR-8 ovarian
  GI50: 17 µM
  TGI: 58.4 µM
HOP-62 NSCLC
  GI50: 37.6 µM
  TGI: > 100 µM
NCI-H522 lung
  GI50: 35 µM
  TGI: > 100 µM
A498 renal
  GI50: 57.3 µM
  TGI: > 100 µM
A549 NSCLC
  GI50: 31.1 µM
  TGI: > 100 µM
SK-MEL-5 melanoma
  GI50: 60.2 µM
  TGI: > 100 µM
EKVX NSCLC
  GI50: 21.9 µM
  TGI: 53.1 µM
SNB-75 CNS
  GI50: 30.9 µM
  TGI: 64.5 µM
MDA-MB-435
  GI50: > 100 µM
  TGI: > 100 µM
MOLT-4 leukemia
  GI50: 25.8 µM
  TGI: 62.6 µM
MDA-MB-231 breast
  GI50: > 100 µM
  TGI: > 100 µM
TK-10 renal
  GI50: 77.6 µM
  TGI: > 100 µM
RPMI-8226 leukemia
  GI50: 64.6 µM
  TGI: > 100 µM
HCC-2998 colon
  GI50: 70.8 µM
  TGI: > 100 µM
NCI-H460 lung
  GI50: 97.4 µM
  TGI: > 100 µM
KM12 colon
  GI50: 48.9 µM
  TGI: > 100 µM
SF-539 CNS
  GI50: 63.9 µM
  TGI: > 100 µM
NCI-H226 lung
  GI50: 86.3 µM
  TGI: > 100 µM
K-562 leukemia
  GI50: 37.9 µM
  TGI: > 100 µM

## C=C(CBr)CCCOCc1ccccc1
BT-549 breast
  TGI: 35.4 µM
PC-3 prostate
  TGI: 39.8 µM
IGROV1 ovarian
  TGI: 44.3 µM
U251 CNS
  TGI: > 100 µM
OVCAR-4 ovarian
  TGI: 38.2 µM
MCF7 breast
  TGI: 77.1 µM
SF-268 CNS
  TGI: 32.5 µM
HL-60(TB) leukemia
  TGI: 72.6 µM
NCI/ADR-RES ovarian
  TGI: 40 µM
ACHN renal
  TGI: 27.3 µM
SNB-19 CNS
  TGI: > 100 µM
COLO 205 colon
  TGI: 54 µM
NCI-H23 lung
  TGI: 30.9 µM
LOX IMVI melanoma
  TGI: 92.9 µM
M14 melanoma
  TGI: 31.9 µM
UACC-62 melanoma
  TGI: 47.2 µM
HCT-116 colon
  TGI: > 100 µM
T-47D breast
  TGI: > 100 µM
OVCAR-5 ovarian
  TGI: 33.3 µM
UACC-257 melanoma
  TGI: > 100 µM
SR leukemia
  TGI: 89.8 µM
SW-620 colon
  TGI: > 100 µM
786-0 renal
  TGI: > 100 µM
SF-295 CNS
  TGI: > 100 µM
HCT-15 colon
  TGI: 68.2 µM
CAKI-1 renal
  TGI: 18.2 µM
OVCAR-3 ovarian
  TGI: 37.6 µM
DU-145 prostate
  TGI: > 100 µM
SK-MEL-28 melanoma
  TGI: > 100 µM
SK-OV-3 ovarian
  TGI: > 100 µM
SN12C renal
  TGI: 57.3 µM
MALME-3M melanoma
  TGI: 41.7 µM
SK-MEL-2 melanoma
  TGI: 38 µM
CCRF-CEM leukemia
  TGI: > 100 µM
HT29 colon
  TGI: 39.2 µM
UO-31 renal
  TGI: 26.8 µM
OVCAR-8 ovarian
  TGI: 32.2 µM
HOP-62 NSCLC
  TGI: 48.6 µM
NCI-H522 lung
  TGI: 49.1 µM
A498 renal
  TGI: > 100 µM
A549 NSCLC
  TGI: > 100 µM
SK-MEL-5 melanoma
  TGI: 35.9 µM
EKVX NSCLC
  TGI: 46.6 µM
MDA-MB-435
  TGI: 88.2 µM
MOLT-4 leukemia
  TGI: > 100 µM
HOP-92 NSCLC
  TGI: 49.8 µM
TK-10 renal
  TGI: 36.3 µM
RPMI-8226 leukemia
  TGI: 64.7 µM
NCI-H460 lung
  TGI: 35.3 µM
KM12 colon
  TGI: 33.7 µM
SF-539 CNS
  TGI: 34.8 µM
NCI-H226 lung
  TGI: 41.5 µM
K-562 leukemia
  TGI: > 100 µM
